From patent publication US6210917A, “Method for suppressing multiple drug resistance in cancer cells” (priority 1997, dated 2001)

Experiments:
MV522Q6 cells = assay: growth of MDR cells by reduction of a tetrazolium dye (FIG. 1A); assay type: cell-based, human; conditions: 10 μM; for sensitivity of the resistant cell line to chemotherapy: MV522Q6 compared with MV522, three days
Experimental: MV522 is a human cancer cell line; MV522Q6 is a variant of the cell line with MDR. Each cell line was grown in a monolayer as and contacted with 10 μM of a chemotherapeutic agent and/or L-alanosine (as shown in FIGS. 1A and 1B). Growth, or the lack thereof, was measured in each population of cells by reduction of a tetrazolium dye after three days in culture.
FIG. 1A is a graph depicting the effect of L-alanosine and different chemotherapeutic agents (vinblastine and taxol) on a MDR cancer cell line (MV522Q6). FIG. 1B is a graph depicting the effect of the same drugs on the cell line before acquisition of resistance (MV522). […] However, the adenine synthesis inhibitor L-alanosine is nearly 10 times as potent in the resistant cell line than the other agents tested.

MES-SA/Dx5 cells [1] = conditions: cited from earlier work
[2] = system: MTAse deficient H292 cells; assay: proliferation in presence of L-alanosine with MTA or adenine added (FIG. 2); assay type: cell-based; conditions: L-alanosine 40 μM
[3] = system: MTAse competent A427 cells; assay: growth restoration by MTAse substrates after L-alanosine (FIG. 3); assay type: cell-based
[4] = system: MTAse competent MOLT-4 cells; assay: as above; assay type: cell-based
[5] = system: MTAse deficient A549 cells; assay: as above; assay type: cell-based
[6] = system: MTAse deficient CEM cells; assay: as above; assay type: cell-based
MES-SA/Dx5 cells [7] = assay: growth of MES-SA/Dx5 drug resistant cells with L-alanosine and other agents; assay type: cell-based; conditions: data not shown
A549 NSCLC cells = assay: tumor xenograft in nude mice, MTAP-deficient A549 cells (FIG. 5); assay type: in vivo, Balb/c athymic nude mice; conditions: i.p. every 12 hours; 15 mg/kg per injection 7 days then 22.5 mg/kg 5 days
Experimental: (§1) 10^7 A549 or A427 NSCLC cells were injected subcutaneously into 6-week old Balb/c athymic nude mice. When tumors had reached approximately 0.4 cm diameter, treatment was begun with L-alanosine or saline by intraperitoneal injection every 12 hours. Mice received 15 mg/kg per injection for 7 days then 22.5 mg/kg for 5 days. Tumor size was measured as the product of perpendicular diameters. The results for treated (n=6 [sample size] for each cell type) vs. control (n=4 [sample size] for each cell type) mice are shown in FIG. 5.

A427 NSCLC cells = assay: tumor xenograft in nude mice, MTAP-positive A427 cells (FIG. 5); assay type: in vivo, Balb/c athymic nude mice; conditions: i.p. every 12 hours; 15 mg/kg per injection 7 days then 22.5 mg/kg 5 days
Experimental: as §1

[8] = toxicity / body weight of nude mice in xenograft study; assay type: in vivo, Balb/c athymic nude mice
Experimental: 10^7 A549 or A427 NSCLC cells were injected subcutaneously into 6-week old Balb/c athymic nude mice. When tumors had reached approximately 0.4 cm diameter, treatment was begun with L-alanosine or saline by intraperitoneal injection every 12 hours.
Mice received 15 mg/kg per injection for 7 days then 22.5 mg/kg for 5 days. Tumor size was measured as the product of perpendicular diameters. The results for treated (n=6 [sample size] for each cell type) vs. control (n=4 [sample size] for each cell type) mice are shown in FIG. 5.

human cancers = conditions: cited from earlier work
melanoma = conditions: Phase II, melanoma patients; cited from earlier work
breast cancer = breast cancer patients; cited from earlier work
MTAse competent cancers = conditions: cited from earlier work
[9] = humans, intravenous, cited from earlier work
[10] = cited from earlier work

CC[C@]1(O)C[C@@H]2CN(CCc3c([nH]c4ccccc34)[C@@](C(=O)OC)(c3cc4c(cc3OC)N(C)[C@H]3[C@@](O)(C(=O)OC)[C@H](OC(C)=O)[C@]5(CC)C=CCN6CC[C@]43[C@@H]65)C2)C1 [vinblastine]
sensitivity of the resistant cell line to chemotherapy (MV522Q6 cells): greatly reduced
resistance level to chemotherapeutic agents (MES-SA/Dx5 cells [1]): highly resistant

Nc1ncnc2nc[nH]c12 [adenine]
proliferation of control cultures containing adenine ([2]; control cultures with adenine (Calu-6 / H292)): proliferate despite L-alanosine

C[C@H]1O[C@@H](n2cnc3c(N)ncnc32)[C@H](O)[C@@H]1O [5'-deoxyadenosine]
growth restoration [3]: growth restoration
growth restoration [4]: growth restoration
growth restoration [5]: remained growth inhibited
growth restoration [6]: remained growth inhibited

CC(=O)O[C@H]1C(=O)[C@@]2(C)[C@H]([C@H](OC(=O)c3ccccc3)[C@]3(O)C[C@H](OC(=O)[C@H](O)[C@@H](NC(=O)c4ccccc4)c4ccccc4)C(C)=C1C3(C)C)[C@]1(OC(C)=O)CO[C@@H]1C[C@@H]2O [taxol]
sensitivity of the resistant cell line to chemotherapy (MV522Q6 cells): greatly reduced
resistance level to chemotherapeutic agents (MES-SA/Dx5 cells [1]): highly resistant

N[C@@H](CN(O)N=O)C(=O)O [L-alanosine]
potency of L-alanosine in the resistant cell line relative to the other agents tested (MV522Q6 cells; MV522Q6 (MDR), three days in culture): ~10 times
potency in the resistant cell line vs the non-resistant cell line (MV522Q6 cells; MV522Q6 vs MV522): as, if not more, potent in the resistant cell line than in the non-resistant cell line
effect on drug resistant cell line vs other agents tested (MES-SA/Dx5 cells [7]): significantly more affected by L-alanosine than by the other agents tested
inability to proliferate in the presence of L-alanosine despite MTA ([2]; H292 compared with Calu-6, with MTA): selective inability of MTAse deficient NSCLC cells to proliferate
size of well-established MTAP-deficient tumors (A549 NSCLC cells): decrease in the size
effect on growth of MTAP-positive cells (A427 NSCLC cells): no effect on the growth
toxicity ([8]; 15 and 22.5 mg/kg per injection, i.p. every 12 hours): No toxicity was evident
body weight ([8]; throughout testing): stable weights
overall response rate (human cancers; Phase II studies, Creagan et al.): 4%
efficacy for treatment of human cancers (human cancers; Tyagi and Cooney 1984): little encouragement
therapeutic response (melanoma): little therapeutic response observed
objective responses (breast cancer): no objective responses observed
success in clinical trials (MTAse competent cancers): no appreciable success
plasma clearance [9]: biphasic
t1/2α ([9]; plasma, biphasic, approximate): ~14 min
t1/2β ([9]; plasma, biphasic, approximate): ~99 min
dose limiting toxicity ([10]; continuous infusion about 125 mg/m^2 for 5 days, adults, acute non-lymphoblastic leukemia, phase II): mucositis
toxicity after multiple bolus dosing ([10]; multiple bolus dosing): Stomatitis and esophagitis
dose-limiting toxicity ([10]; prior clinical trials): renal toxicity, stomatitis, esophagitis
reactions with lesser frequency ([10]; prior clinical trials): myelosuppression, headache, nausea and hypo- or hypertension
dose at which renal toxicity occurred ([10]; single bolus dosing): above 4 g/m^2 body weight
dose at which two pediatric patients suffered liver failure ([10]; two pediatric patients, separate doses): about 350 mg/m^2 body weight per day
